From patent US20200291100A1, “TREATMENT OF AGE-RELATED AND MITOCHONDRIAL DISEASES BY INHIBITION OF HIF-1 ALPHA FUNCTION” (President and Fellows of Harvard College, priority 2012, published 2020)

Experiments:
[1] = tested on: primary PGC-1α/β KO myotubes; assay: NMN with or without HIF stabilizing compounds in PGC-1α/β KO myotubes, qPCR of mitochondrially-encoded ETC genes; type: cell-based, mouse
Procedure: As a functional test of whether NMN reverses genome asynchrony by depleting cells of HIF-1α, primary PGC-1α/β KO myotubes were incubated with NMN in the presence and absence of the HIF stabilizing compounds DMOG and DFO. […] Primary myoblasts cells were isolated from WT, SIRT1 KO (Price et al., 2012) and PGC-1α/β KO (Zechner et al., 2010) mice as previously described (Price et al., 2012). WT and PGC-1α/β KO primary myoblasts were plated and allowed to differentiate into myotubes by replacing the media with low glucose DMEM supplemented with 2% horse serum (Sigma-Aldrich) for 4 days. After the differentiation the cells were infected with empty vector or flag-SIRT1 adenovirus as described before ([…] al., 2007). Media was replaced with fresh DMEM supplemented with 2% horse serum (Sigma-Aldrich) for an additional 48 hr and, after that the cells were harvested for the different assays as described. […] Quantitative RT-PCR reactions were performed using 1 μM of primers and LightCycler® 480 SYBR Green Master (Roche) on an LightCycler® 480 detection system (Roche). Calculations were performed by a comparative method (2-ΔCT) using 18S as an internal control. For mtDNA analysis, total DNA was extracted with DNeasy blood and tissue kit (Qiagen). mtDNA was amplified using primers specific for the mitochondrial cytochrome c oxidase subunit 2 (COX2) gene and normalized to genomic DNA by amplification of the ribosomal protein s18 (rps18) nuclear gene. Primers were designed using the IDT software (IDT) and the primer sequences can be found in Table 1.

PGC-1α/β KO cells = assay: Pyruvate supplementation of PGC-1α/β KO cells with or without DMOG, mitochondrial-encoded gene expression; type: cell-based, mouse; details: DMOG added to pyruvate-treated cells
Text: FIGS. 21A-21N provide additional data related to the content of FIG. 14. FIG. 21A depicts HIF-1α target genes (PGK-1, Glut1, PDK1 and Vegfa) expression in gastrocnemius of WT and SIRT1 KO mice. Relative expression values were normalized to WT mice (n=5). FIG. 21B depicts hypoxia response element activity in primary myoblasts isolated from WT and SIRT1 KO mice and treated with or without DMOG. Relative luciferase activity was normalized to WT cells (n=6, *p<0.05 versus WT). FIG. 21C depicts a representative immunoblot of HIF-1a and Tubulin in PGC-1α/β KO myotubes treated with adenovirus overexpressing SIRT1 or empty vector as well as treatment with DMSO or with HIF stabilizing compound DMOG. FIG. 21D depicts NAD+/NADH ration measured in primary WT myoblasts treated with either 10 mM pyruvate, 10 mM lactate or vehicle for 24 h (n=4). […] FIG. 21J depicts mitochondrial DNA content analyzed by qPCR in control, HIF-1α DPA or HIF-2α DPA C2C12 cells treated with adenovirus overexpressing SIRT1 or empty vector. […] FIG. 21K depicts ARNT mRNA analyzed by qPCR in C2C12 cells infected with ARNT or nontargeting shRNA. […] FIG. 21L depicts mitochondrial DNA content analyzed by qPCR in C2C12 cells infected with ARNT or nontargeting shRNA. […] FIG. 21M depicts ND1, Cytb, COX1 and ATP6 mRNA analyzed by qPCR in C2C12 cells infected with ARNT or nontargeting shRNA. […] Values are expressed as mean±SEM. […]

Row | Compound | effect on NMN-induced expression of mitochondrially-encoded ETC genes ([1]; HIF stabilizing compound added to NMN-treated cells, 1 mM DMOG or 10 μM DFO, 12 hours) | effect on NAD+ mediated increases in mitochondrial-encoded genes (PGC-1α/β KO cells) | expression of mitochondrially-encoded ETC genes (ND1, CYTB, COX1, ATP6) ([1]; NMN alone, versus PBS)
1 | COC(=O)CNC(=O)C(=O)OC [DMOG, dimethyloxaloylglycine] | completely abolished | inhibited | –
2 | NC(=O)c1ccc[n+]([C@@H]2O[C@H](COP(=O)([O-])O)[C@@H](O)[C@H]2O)c1 [NMN, nicotinamide mononucleotide] | – | – | induced expression
